Legend:
Experiment in all cases: relative viability (nuclei count vs DMSO), 5 days (fraction); higher = more cells survive
[1] = compound: C1=CC2=C(C=C(C(=C2N=C1)O)N=NC3=CC4=C(C=C3)C=C(C=C4)S(=O)(=O)O)S(=O)(=O)O + C[C@@H](Oc1cc(-c2cnn(C3CCNCC3)c2)cnc1N)c1c(Cl)ccc(F)c1Cl [Crizotinib] (partner 1 µM)
In short: (§1)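 Lung cancer cell lines in 1536-well plates got either a single drug or a fixed anchor-drug dose together with five library-drug doses (not always all listed) in √10 steps, by pin tool, on the day after seeding. Nuclei were counted after 5 days, and relative viability is the treated-to-vehicle ratio of nuclei counts. Values are medians of duplicate plates.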

AT-7519 + Dasatinib = compound: O=C(NC1CCNCC1)c1n[nH]cc1NC(=O)c1c(Cl)cccc1Cl [AT-7519] + Cc1nc(Nc2ncc(C(=O)Nc3c(C)cccc3Cl)s2)cc(N2CCN(CCO)CC2)n1 [Dasatinib] (partner 0.075 µM)
In short: as §1

AT-7519 + Luminespib = compound: O=C(NC1CCNCC1)c1n[nH]cc1NC(=O)c1c(Cl)cccc1Cl [AT-7519] + CCNC(=O)c1noc(-c2cc(C(C)C)c(O)cc2O)c1-c1ccc(CN2CCOCC2)cc1 [Luminespib] (partner 0.01 µM)
In short: as §1

AT-7519 + Navitoclax = compound: O=C(NC1CCNCC1)c1n[nH]cc1NC(=O)c1c(Cl)cccc1Cl [AT-7519] + CC1(C)CCC(c2ccc(Cl)cc2)=C(CN2CCN(c3ccc(C(=O)NS(=O)(=O)c4ccc(N[C@H](CCN5CCOCC5)CSc5ccccc5)c(S(=O)(=O)C(F)(F)F)c4)cc3)CC2)C1 [Navitoclax] (partner 0.5 µM)
In short: as §1

Cell Line | relative viability ([1]; first compound 0.08 µM) | relative viability ([1]; first compound 0.253 µM) | relative viability ([1]; first compound 0.8 µM) | relative viability ([1]; first compound 2.53 µM) | relative viability ([1]; first compound 8 µM) | relative viability (AT-7519 + Dasatinib; first compound 0.01 µM) | relative viability (AT-7519 + Dasatinib; first compound 0.03162 µM) | relative viability (AT-7519 + Dasatinib; first compound 0.3162 µM) | relative viability (AT-7519 + Dasatinib; first compound 1 µM) | relative viability (AT-7519 + Luminespib; first compound 0.01 µM) | relative viability (AT-7519 + Luminespib; first compound 0.03162 µM) | relative viability (AT-7519 + Luminespib; first compound 0.3162 µM) | relative viability (AT-7519 + Luminespib; first compound 1 µM) | relative viability (AT-7519 + Navitoclax; first compound 0.01 µM) | relative viability (AT-7519 + Navitoclax; first compound 0.03162 µM) | relative viability (AT-7519 + Navitoclax; first compound 0.3162 µM) | relative viability (AT-7519 + Navitoclax; first compound 1 µM)
NCI-H1993 | 0.866 | 0.904 | 0.864 | 0.797 | 0.896 | 0.626 | 0.516 | 0.441 | 0.312 | 0.788 | 0.823 | 0.844 | 0.388 | 0.895 | 0.781 | 0.984 | 0.548
NCI-H2009 | 1.14 | 1.04 | 1.09 | 1.07 | 1.02 | 0.282 | 0.279 | 0.234 | 0.157 | 1.03 | 1.03 | 1.02 | 0.881 | 1.19 | 1.19 | 1.19 | 0.96
NCI-H2023 | 0.831 | 0.702 | 0.654 | 0.726 | 0.483 | 0.636 | 0.548 | 0.485 | 0.231 | 0.622 | 0.748 | 0.521 | 0.16 | 1.1 | 0.938 | 0.847 | 0.323
NCI-H2085 | 0.956 | 0.891 | 0.855 | 0.85 | 0.725 | 0.219 | 0.242 | 0.256 | 0.218 | 0.528 | 0.405 | 0.489 | 0.515 | 1.18 | 1.21 | 0.967 | 0.658
NCI-H2087 | 1.04 | 0.952 | 0.957 | 0.694 | 0.833 | 1.14 | 0.938 | 0.732 | 0.108 | 0.178 | 0.16 | 0.141 | 0.116 | 1.03 | 0.964 | 1.04 | 0.0625
NCI-H2126 | 1.09 | 0.937 | 0.993 | 1.03 | 1.01 | 0.658 | 0.626 | 0.497 | 0.357 | 1.02 | 0.916 | 0.805 | 0.297 | 0.893 | 0.866 | 0.83 | 0.823
NCI-H2170 | 1.38 | 1.1 | 1.15 | 1.23 | 1.2 | 0.593 | 0.576 | 0.626 | 0.558 | 0.398 | 0.636 | 0.807 | 0.599 | 0.566 | 0.497 | 0.61 | 0.45
NCI-H2228 | 0.399 | 0.597 | 0.642 | 0.587 | 0.482 | 0.407 | 0.464 | 0.516 | 0.352 | 0.152 | 0.174 | 0.156 | 0.165 | 1.08 | 0.72 | 1.04 | 0.437
NCI-H2347 | 0.691 | 0.674 | 0.651 | 0.768 | 0.636 | 0.375 | 0.32 | 0.356 | 0.0926 | 0.83 | 0.268 | 0.392 | 0.39 | 0.741 | 0.675 | 0.745 | 0.59
NCI-H2405 | 0.927 | 0.806 | 0.808 | 0.847 | 0.869 | 0.203 | 0.216 | 0.199 | 0.219 | 0.713 | 0.718 | 0.592 | 0.281 | 1.02 | 0.829 | 0.853 | 0.528
NCI-H3122 | 0.285 | 0.29 | 0.275 | 0.271 | 0.274 | 0.917 | 0.805 | 0.809 | 0.354 | 0.104 | 0.0901 | 0.112 | 0.0695 | 1.02 | 1.07 | 1.06 | 0.558
PC-3 [JPC-3] | 1.07 | 1.02 | 0.999 | 0.978 | 0.966 | 0.841 | 0.99 | 0.915 | 1.04 | 0.515 | 0.558 | 0.694 | 0.623 | 0.754 | 0.714 | 0.867 | 0.934
PC-14 | 0.944 | 0.833 | 0.907 | 0.892 | 0.941 | 0.241 | 0.239 | 0.163 | 0.0573 | 0.196 | 0.151 | 0.151 | 0.111 | 0.994 | 1.03 | 0.952 | 0.719
RERF-LC-KJ | 0.828 | 0.797 | 0.782 | 0.872 | 0.869 | 0.903 | 0.847 | 0.611 | 0.195 | 1.18 | 1.21 | 0.856 | 0.311 | 1.04 | 0.981 | 0.848 | 0.408
SK-LU-1 | 1 | 0.952 | 0.854 | 0.923 | 0.93 | 0.171 | 0.155 | 0.157 | 0.163 | 0.221 | 0.195 | 0.202 | 0.2 | 0.516 | 0.848 | 0.882 | 0.189
SK-MES-1 | 0.96 | 0.886 | 0.963 | 1 | 0.948 | 0.336 | 0.31 | 0.405 | 0.217 | 0.847 | 0.734 | 0.593 | 0.33 | 1.18 | 1.08 | 1.25 | 1.15
SW 1573 | 0.842 | 0.78 | 0.836 | 0.85 | 0.742 | 0.762 | 0.466 | 0.255 | 0.0794 | 0.223 | 0.203 | 0.149 | 0.126 | 0.921 | 0.873 | 0.704 | 0.224
